The structures appear in SMILES notation. Where a name gives a salt, the structure may show the parent alone.

The target of series [1] is T1, bovine serum albumin (BSA) (Bos taurus, UniProt P02769).
T1 construct: a solution of bovine serum albumin (BSA) in water
The experiment in a line: Protein binding studies: BSA solution, centrifugal filter devices, drug in filtrate by HPLC. The format is in vitro ADME. To be noted: 37° C.; for % Protein Binding: didanosine derivatives of Examples 24 and 25, 4% BSA; for % Albumin binding: method of Example 7, 4% BSA. As for the experimental part: The compound (approximately 5 mg) was dissolved in DMSO (approximately 1.8 ml). A small sample of this DMSO solution (approximately 5 mg) was added to a solution of bovine serum albumin (BSA) in water (approximately 1.8 ml, 4% BSA). Another sample of the DMSO solution (approximately 5 mg) was added to a solution of phosphate buffer pH 7.4 (isotonic) (approximately 1.8 ml).
Both samples were shaken in a water bath for 30 minutes at 37° C.
The devices were centrifugated at 4000 rpm for 1 hour at 37° C.
The amount of drug in the filtrates was determined by HPLC (C-18 column, phosphate buffer pH 2.2/acetonitrile, UV detection).

Series [2] concerns implanted human colon cancer. Nature of the series: Efficacy of cytarabin azelaic acid derivative versus cytarabin, tumor size in nude mice. In kind it is in vivo. To be noted: solutions of Example 46, 0.1 ml i.p. twice, tumor size determined at day 13. As for the experimental part: A solution of cytarabin hydrochloride was prepared by dissolving the hydrochloride salt (5.0 mg) in a sterile saline solution (1.0 ml). The solution was shaken with a ESPE Capmix shaker for 60 seconds before injection.
(§1) A solution of 5′-O-(azelaoyl) 1-β-D-arabinofuranosyl-cytosine meglumine salt was prepared by dissolving N-methyl-D-glucamine (6.0 mg, 0.030 mmol) and 5′-O-(azelaoyl) 1-β-D-arabinofuranosyl-cytosine (8.5 mg, 0.020 mmol) in a sterile saline solution (1.0 ml). The solution was shaken with a ESPE Capmix shaker for 60 seconds before injection.
(§2) The solution for injection (azelaoyl derivative) from Example 46 was administered i.p. twice (0.1 ml) to 4 nude mice (20 g). The mice had implanted human colon cancer on the leg. The second injection was on day 3.
The solutions (cytarabin and cytarabine azelaic derivative) described in Example 46 were injected as described in Example 47 (4 animals in each group). The size of the tumor was determined at day 13.

The test system of another series is nude mice. The experiment in a line: Toxicity of 5-O-(azelaoyl) 1-beta-D-arabinofuranosyl-cytosine meglumine salt in nude mice. The format is in vivo. To be noted: 8.5 mg/ml solution, 0.1 ml i.p. twice (second injection on day 3), nude mice (20 g) with implanted human colon cancer, observed for 13 days. As for the experimental part:
as §1, §2

The mark [3] stands for this setting: didanosine and didanosine prodrugs.
The mark [4] stands for this setting: 6-mercaptopurine and 6-mercaptopurine prodrugs.

T1 sequence (P02769 25-607): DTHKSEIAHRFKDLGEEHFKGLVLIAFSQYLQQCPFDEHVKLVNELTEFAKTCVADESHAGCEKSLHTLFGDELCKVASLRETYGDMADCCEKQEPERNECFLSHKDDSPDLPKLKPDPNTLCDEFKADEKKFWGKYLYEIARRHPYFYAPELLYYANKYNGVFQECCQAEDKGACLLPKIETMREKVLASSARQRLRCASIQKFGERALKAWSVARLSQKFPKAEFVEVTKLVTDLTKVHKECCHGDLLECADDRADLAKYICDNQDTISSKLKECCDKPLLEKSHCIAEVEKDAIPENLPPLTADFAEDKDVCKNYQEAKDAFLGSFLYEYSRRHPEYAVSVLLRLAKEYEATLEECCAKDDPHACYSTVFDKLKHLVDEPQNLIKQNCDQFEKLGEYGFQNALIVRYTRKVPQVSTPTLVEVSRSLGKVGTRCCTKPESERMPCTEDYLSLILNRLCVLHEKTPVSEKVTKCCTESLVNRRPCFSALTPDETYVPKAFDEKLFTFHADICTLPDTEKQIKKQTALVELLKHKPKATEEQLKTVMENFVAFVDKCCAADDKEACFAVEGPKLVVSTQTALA

With `O=C(O)c1cccc(C(=O)OC[C@@H]2CC[C@H](n3cnc4c(O)ncnc43)O2)c1` [5′-(2′,3′-dideoxyinosine) mono 1,3-benzenedicarboxylic acid ester], the “% Protein Binding” value in series [1] worked out at 51%.
For `O=C(O)CCCCCCCCCCC(=O)OCC1CCC(n2cnc3c(=O)[nH]cnc32)O1` (stereo not drawn) [Example 23, 2′,3′-dideoxy-5′-hydrogen dodecanedioate inosine], the “% Albumin binding” value in series [1] (setting [3]) is on record as 40%.
On the same count and under the same terms, with `O=C(O)CCCCC(=O)OCC1CCC(n2cnc3c(=O)[nH]cnc32)O1` (stereo not drawn) [Example 21, 2′,3′-dideoxy-5′-hydrogen hexanedioate inosine] the figure was 100%.
As for `O=C(O)Cc1ccc(CC(=O)OC[C@@H]2CC[C@H](n3cnc4c(O)ncnc43)O2)cc1` [5′-(2′,3′-dideoxyinosine) mono 1,4-benzenediacetic acid ester], in series [1], the “% Protein Binding” value came out at 28%.
As for `CNC[C@H](O)[C@@H](O)[C@H](O)[C@H](O)CO.Nc1ccn([C@@H]2O[C@H](COC(=O)CCCCCCCC(=O)O)[C@@H](O)[C@@H]2O)c(=O)n1` [Example 45, 5′-O-(azelaoyl) 1-β-D-arabinofuranosyl-cytosine meglumine salt], in series [2], the average tumor growth entry is on record as “average tumor growth was higher for cytarabin treated mice than for mice treated with azelaic acid derivative”. Also, in the series on nude mice, the sign of toxicity entry is on record as “did not show any sign of toxicity”.
Take `O=C(O)Cc1cccc(CC(=O)OC[C@@H]2CC[C@H](n3cnc4c(O)ncnc43)O2)c1` [5′-(2′,3′-dideoxyinosine) mono 1,3-benzenediacetic acid ester]: in series [1], the “% Protein Binding” value was 38%.
Consider `COC(=O)CCCCCSc1ncnc2[nH]cnc12` [Example 9, 6-(1H-purin-6-ylthio)-hexanoic acid methyl ester], for which the “% Albumin binding” value in series [1] (setting [4]) is reported as 72%.
As for `O=C(O)CCc1ccc(CCC(=O)OC[C@@H]2CC[C@H](n3cnc4c(O)ncnc43)O2)cc1` [5′-(2′3′-dideoxyinosine) mono 1,4-benzenedipropionic acid ester], the “% Protein Binding” value in series [1] was found to be 63%.
On the same count and under the same terms, under `O=C(O)c1ccc(C(=O)OC[C@@H]2CC[C@H](n3cnc4c(O)ncnc43)O2)cc1` [5′-(2′,3′-dideoxyinosine) mono 1,4-benzenedicarboxylic acid ester] stands 44%.
Take `O=C(O)CCCCCCCCCCCSc1ncnc2[nH]cnc12` [Example 11, 12-(1H-purin-6-ylthio)dodecanoic acid]: the “% Albumin binding” value in series [1] (setting [4]) is given as 100%.
With `O=C(O)CCCCCCC(=O)OCC1CCC(n2cnc3c(=O)[nH]cnc32)O1` (stereo not drawn) [Example 22, 2′,3′-dideoxy-5′-hydrogen octanedioate inosine], in series [1] (setting [3]), the “% Albumin binding” value is on record as 10%.
In the case of `O=C(O)Cc1ccccc1CC(=O)OC[C@@H]1CC[C@H](n2cnc3c(O)ncnc32)O1` [5′-(2′3′-dideoxyinosine) mono 1,2-benzenediacetic acid ester], the “% Protein Binding” value in series [1] is 25%.
For `Nc1ccn([C@@H]2O[C@H](CO)[C@@H](O)[C@@H]2O)c(=O)n1` [cytarabin, cytarabin hydrochloride, reference compound], the average tumor growth result in series [2] is “higher for cytarabin treated mice than for mice treated with azelaic acid derivative”.
Take `Sc1ncnc2nc[nH]c12` [6-Mercaptopurine, reference compound]: the “% Albumin binding” value in series [1] (setting [4]) worked out at 10%.
The same measure, in the same setting: under `COC(=O)CCCCCCCCCCCSc1ncnc2[nH]cnc12` [Example 10, 12-(1H-purin-6-ylthio)-dodecanoic acid methyl ester] stands “insoluble”.
Regarding `CC(C)(C)OC(=O)OC[C@@H]1CC[C@H](n2cnc3c(O)ncnc32)O1` [Example 24, 5′-Boc,-2′3′-dideoxyinosine], the “% Albumin binding” value in series [1] (setting [3]) came out at 94%. The “% Protein Binding” value in series [1] amounted to 8%.

Source of the values: patent publication US20080103110A1, “Compounds” (DRUG DISCOVERY LABORATORY AS, priority 2004, published 2008).
